Laboratory results as given in patent US5238922A, “Inhibitors of farnesyl protein transferase” (Merck & Co., Inc., priority 1991, dated 1993).

Legend:
[1] = test system: Ras farnesylation in the v-ras cell line (viral Ha-ras p21); assay: In vivo ras farnesylation assay (v-ras cell line); format: cell-based
Description: The cell line used in this assay was the v-ras line, which expressed viral Ha-ras p21. The assay was performed essentially as described in DeClue, J. E. et. al., Cancer Research 51, 712-717, (1991). Cells in 10 cm dishes at 50-75% confluency were treated with the test compound (final concentration of solvent, methanol or dimethyl sulfoxide, was 0.1%). After 4 hours at 37° C., the cells were labelled in 3 ml methionine-free DMEM supplemented with 10% regular DMEM, 2% fetal bovine serum and 400 μCi[^35 S]methionine (1000 Ci/mmol). After an additional 20 hours, the cells were lysed in 1 ml lysis buffer (1% NP40/20 mM HEPES, pH 7.5/5 mM MgCl2 /1 mM DTT/10 μg/ml aprotinen/2 μg/ml leupeptin/2 μg/ml antipain/0.5 mM PMSF) and the lysates cleared by centrifugation at 100,000×g for 45 min. Aliqouts of lysates containing equal numbers of acid-precipitable counts were bought to 1 ml with IP buffer (lysis buffer lacking DTT) and immunoprecipitated with the ras-specific monoclonal antibody Y13-259 (Furth, M. E. et. al., J. Virol. 43, 294-304, (1982)). Following a 2 hour antibody incubation at 4° C., 200 μl of a 25% suspension of protein A-Sepharose coated with rabbit anti rat IgG was added for 45 min. […]

[2] = target: T1, Farnesyl-protein transferase (FTase) from bovine brain (Bos taurus, UniProt P29702+P49355); assay: In vitro inhibition of Ras Farnesyl Transferase; format: biochemical; details: partially purified bovine brain FTase; Ras-CVLS 3.5 μM, 0.25 μM [3H]FPP; read-out: IC50 (concentration of compound which gives 50% inhibition of FTase)
T1 construct: incubated with this partially purified enzyme preparation; from tissue; host or cells: bovine brain
Description: Farnesyl-protein transferase (FTase) from bovine brain was chromatographed on DEAE-Sephacel (Pharmacia, 0-0.8M NaCl gradient elution), N-octyl agarose (Sigma, 0-0.6M NaCl gradient elution),, and a mono Q HPLC column (Pharmacia, 0-0.3M NaCl gradient). Ras-CVLS at 3.5 μM, 0.25 μM [^3 H]FPP, and the indicated compounds were incubated with this partially purified enzyme preparation. The FTase data presented below is a measurement of the ability of the test compound to inhibit Ras farnesylation in vitro.

IC50 [2] | SMILES | Inhibition of Ras Farnesylation in the v-ras cell line ([1]; at 10 μm test concentration) | Inhibition of Ras Farnesylation in the v-ras cell line ([1]; at 100 μm test concentration)
2000 nM | CCOC(=O)[C@H](CCSC)NC(=O)[C@H](Cc1ccccc1)NC(=O)[C@@H](NC[C@@H](N)CS)[C@@H](C)CC [N-(2(R)-amino-3-mercaptopropyl)isoleucyl-phenylalanyl-methionine ethyl ester] | 10% | 
4.7 nM | CC[C@H](C)[C@@H](CN[C@@H](Cc1ccccc1)C(=O)N[C@@H](CCSC)C(=O)O)NC[C@@H](N)CS [N-[2(S)-(2(R)-amino-3-mercaptopropylamino)-3(S)-methylpentyl]phenylalanyl-methionine] |  | 30%
7 nM | CSCC[C@H](NC(=O)[C@H](Cc1ccccc1)NC[C@@H](NC(=O)[C@@H](N)CS)C(C)C)C(=O)O [N-(3-methyl-2(S)-(cysteinylamino)but-1-yl)phenylalanyl-methionine] |  | 
